From article PMC6350255 (Journal of medicinal chemistry, 2018)
“Also recorded” adds a separate entry of the source.

How the values were obtained:
[1] = tested on: human β-cells (dispersed human pancreatic islets); type: cell-based; conditions: for human β-cell proliferation in words, dose response / overall: doses of 3–30 μM
[2] = tested on: NFAT2-GFP nuclear translocation in R7T1 rat beta cell line; assay: NFAT2 translocation assay; type: cell-based; conditions: 10 μM, 24 h

For `COc1ccc2c(c1)[nH]c1c(Cl)nccc12` [1–5, 1-Chloro-7-methoxy-9H-β-carboline], the “human β-cell proliferation in words, dose response / overall” value [1] was “comparable to that of harmine”.
In the case of `COc1ccc2c(c1)[nH]c1c(C)nc(CO)cc12` [2–8, (1-Methyl-7-methoxy-9H-pyrido[3,4-b]indol-3-yl)methanol], the “human β-cell proliferation, Ki-67 immunolabeling” value ([1]; 10 μM, 96 h) is reported as “comparable to that of harmine”, the “human β-cell proliferation in words, dose response / overall” value [1] is reported as “excellent human β-cell proliferation; also recorded: caused proliferation in a dose-dependent manner; also recorded: superior human β-cell proliferation at a lower dose as compared to 2–2; also recorded: comparable to that of harmine” and the “NFAT2 translocation to nucleus” value [2] is reported as “drove NFAT2 translocation”. For the same compound, the beta cell toxicity (human β-cells) was “did not cause toxicity”.
In the case of `COc1ccc2c(c1)[nH]c1c(CO)nccc12` [Compound 2–2, 1-Hydroxymethyl-7-methoxy-9H-β-carboline], the “NFAT2 translocation to nucleus” value [2] is reported as “drove NFAT2 translocation” and the beta cell toxicity (human β-cells) is reported as “did not cause toxicity”.
With `COc1ccc2c(c1)[nH]c1c(C(C)=O)nccc12` [Compound 3–2, 1-Acetyl-7-methoxy-9H-β-carboline] the “human β-cell proliferation in words, dose response / overall” value [1] was “comparable to that of harmine”.
